Some test systems named below: HCC-2998 colon; NCI-H23 lung; 786-0 renal; EKVX NSCLC; MCF7 breast; SW-620 colon; MOLT-4 leukemia; HS 578T breast; SK-MEL-5 melanoma; OVCAR-8 ovarian.
Common to all, as to test: DTP human tumour cell line panel, 48 h

The source of these data is PubChem BioAssay (NCI).

Several values for one entry are separate records, joined by “and”; a condition that tells them apart may be missing. Equal values may be shown once.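 Assay format: 96-well plates, 48-hour exposure. The concentration for 50% growth inhibition is given as GI50. TGI is the concentration that stops growth completely.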 Where only a bound is given, the exact number is not on record here.

By TGI is commonly meant the concentration at which net growth stops. A higher TGI goes with less potent growth arrest. On to `CCOC(=O)C(NC(=O)c1ccccc1)(Nc1ccc(S(=O)(=O)Nc2ccc(OC)nn2)cc1)C(F)(F)F` (stereo not given), for which the TGI in the assay with HCC-2998 colon, in the assay with NCI-H23 lung, in the assay on 786-0 renal, with EKVX NSCLC, with MCF7 breast and with SW-620 colon was over 100 µM each time. Besides, the TGI in the assay on MOLT-4 leukemia, in the assay with HS 578T breast, in the assay with SK-MEL-5 melanoma and in the assay with OVCAR-8 ovarian was over 100 µM each time.
For the compound `O=C1c2ccccc2C(=O)c2c(NCC3CO3)cccc21` (stereo not given), the TGI was over 100 µM with HCC-2998 colon; over 40.4 µM with NCI-H23 lung; over 47.9 µM in the assay with 786-0 renal; over 57.6 µM in the assay with EKVX NSCLC; 7.14 µM with MCF7 breast; 12.7 µM in the assay on SW-620 colon. The TGI is 14.7 µM with MOLT-4 leukemia, over 100 µM with HS 578T breast, over 95.7 µM in the assay with SK-MEL-5 melanoma and 24.8 µM with OVCAR-8 ovarian.
In the case of `Cc1sc2nc3n(c(=O)c2c1C)N=C(c1ccccc1)CS3`, the TGI in the assay with HCC-2998 colon, in the assay on NCI-H23 lung, in the assay on 786-0 renal, in the assay on EKVX NSCLC, in the assay on MCF7 breast and in the assay on SW-620 colon was over 100 µM throughout. The TGI in the assay with MOLT-4 leukemia, in the assay on HS 578T breast, in the assay with SK-MEL-5 melanoma and in the assay on OVCAR-8 ovarian was over 100 µM in each case.
In the case of `O=C1c2c(F)c(F)c(F)c(F)c2SC2=Nc3cccc4cccc(c34)N12`, the TGI in the assay with HCC-2998 colon was 28.5 µM; in the assay with NCI-H23 lung, 10.9 µM; in the assay with 786-0 renal, 16.9 µM; with EKVX NSCLC it was 26.5 µM; in the assay on MCF7 breast, 16 µM; in the assay on SW-620 colon, 12 µM. Also, the concentration for total growth inhibition (TGI) in the assay with MOLT-4 leukemia came to 6.01 µM; with HS 578T breast it was 7.73 µM; with SK-MEL-5 melanoma, 28.4 µM; with OVCAR-8 ovarian it was 17.7 µM.
For `CCOC(=O)[C@H](CO)Nc1c(O)c2c(c(O)c1Cl)C(=O)C=CC2=O`, the TGI in the assay on HCC-2998 colon, with NCI-H23 lung, in the assay with 786-0 renal, in the assay on EKVX NSCLC, in the assay on MCF7 breast and with SW-620 colon was over 10 µM throughout. Besides, the TGI in the assay on MOLT-4 leukemia, in the assay with HS 578T breast, in the assay on SK-MEL-5 melanoma and with OVCAR-8 ovarian was over 10 µM in each case.
As to `Cc1cc2c(cc1-c1cc3c(cc1C)C(C(C)C)=C(O)C(=O)/C3=C\Nc1ccccn1)/C(=C/Nc1ccccn1)C(=O)C(O)=C2C(C)C`, the TGI in the assay with HCC-2998 colon is 60.2 µM; with NCI-H23 lung it was over 100 µM; with 786-0 renal, over 100 µM; in the assay with EKVX NSCLC, over 100 µM; in the assay with MCF7 breast, over 100 µM; in the assay with SW-620 colon it was over 100 µM. Moreover, the TGI in the assay with MOLT-4 leukemia, in the assay on HS 578T breast, with SK-MEL-5 melanoma and in the assay with OVCAR-8 ovarian was over 100 µM each time.
Consider `COc1cc(C2c3cc4c(cc3OC(NNc3ccccc3)C2C)OCO4)cc(OC)c1O` (stereo not given), for which the TGI in the assay on HCC-2998 colon was found to be 2.87 µM; in the assay on NCI-H23 lung, 29.4 µM; in the assay with 786-0 renal, 15.6 µM; in the assay on EKVX NSCLC, 69.9 µM; in the assay on MCF7 breast, 13.3 µM; with SW-620 colon, 21 µM. In addition, the total growth inhibition concentration (TGI) with MOLT-4 leukemia was 11.2 µM; with HS 578T breast it was 12 µM; in the assay with SK-MEL-5 melanoma, 3.68 µM; in the assay on OVCAR-8 ovarian, 23.8 µM.
In the case of `O=C(NCCC1CN(S(=O)(=O)C(F)(F)F)c2ccccc21)OCc1ccccc1` (stereo not given), the TGI in the assay on HCC-2998 colon, in the assay with NCI-H23 lung, in the assay on 786-0 renal, in the assay on EKVX NSCLC, in the assay with MCF7 breast and with SW-620 colon was over 100 µM in each case. Moreover, the TGI in the assay with MOLT-4 leukemia, in the assay on HS 578T breast, with SK-MEL-5 melanoma and in the assay with OVCAR-8 ovarian was over 100 µM throughout.
As to `CCOC(=O)[C@@]12NN=N[C@@H]1[C@H]1CO[C@H](c3ccccc3)N1C2=O`, the TGI worked out at 25.7 µM in the assay with HCC-2998 colon; 32.8 µM in the assay on NCI-H23 lung; 30.3 µM with 786-0 renal; 28.8 µM with EKVX NSCLC; 25.3 µM in the assay with MCF7 breast; 25.5 µM with SW-620 colon. The TGI with MOLT-4 leukemia was over 100 µM; in the assay on HS 578T breast it was 17.8 µM; in the assay on SK-MEL-5 melanoma, 24.5 µM; in the assay on OVCAR-8 ovarian, 23.7 µM.
Consider `N#CC(C#N)C1CN2CCC1CC2` (stereo not given), for which the TGI with HCC-2998 colon, in the assay with NCI-H23 lung, in the assay with 786-0 renal, with EKVX NSCLC, in the assay on MCF7 breast and in the assay on SW-620 colon was over 100 µM each time. The TGI in the assay with MOLT-4 leukemia, in the assay on HS 578T breast, with SK-MEL-5 melanoma and with OVCAR-8 ovarian was over 100 µM each time.
For orientation: GI50 means the concentration that inhibits growth by half. Consider `NC(CS)C(=O)NCCNc1ccc(NCCNC(=O)C(N)CS)c2c1C(=O)c1c(O)ccc(O)c1C2=O` (stereo not given), for which the GI50 in the assay with HCC-2998 colon is 0.196 µM; in the assay with EKVX NSCLC, 0.0538 µM; in the assay with SW-620 colon, 0.0218 µM; with SK-MEL-5 melanoma it was 0.0231 µM; in the assay on OVCAR-8 ovarian, 0.0108 µM. The TGI in the assay with HCC-2998 colon was 1.13 µM and 0.822 µM; with NCI-H23 lung it was 0.0636 µM and 0.0484 µM; in the assay with 786-0 renal it was 0.0831 µM and 0.0438 µM; with EKVX NSCLC, 1.05 µM and 0.274 µM; in the assay with MCF7 breast, 1.21 µM; with SW-620 colon, 1.24 µM and 1.01 µM. For the same compound, the TGI in the assay with MOLT-4 leukemia was 0.62 µM; with HS 578T breast, 0.615 µM; in the assay with SK-MEL-5 melanoma, 1.33 µM and 0.373 µM; with OVCAR-8 ovarian, 0.574 µM and 0.174 µM.
For `COc1ccc(Oc2nc3c(N)cc(C(F)(F)F)cc3nc2-c2ccccc2)cc1`, the TGI was over 100 µM in the assay with HCC-2998 colon; over 100 µM in the assay with NCI-H23 lung; 56.4 µM in the assay on 786-0 renal; 28.9 µM with EKVX NSCLC; 23.8 µM with MCF7 breast; over 100 µM in the assay on SW-620 colon. Further, the TGI with MOLT-4 leukemia was over 100 µM; in the assay with HS 578T breast it was 43 µM; with SK-MEL-5 melanoma it was over 100 µM; in the assay on OVCAR-8 ovarian, over 100 µM.
For the compound `N#Cc1c(O)c(C=O)c(=O)n2c1[nH]c1ccccc12`, the TGI in the assay with HCC-2998 colon, in the assay with NCI-H23 lung, in the assay on 786-0 renal, with EKVX NSCLC, with MCF7 breast and with SW-620 colon was over 100 µM in each case. Also, the TGI in the assay with MOLT-4 leukemia, in the assay with HS 578T breast, with SK-MEL-5 melanoma and with OVCAR-8 ovarian was over 100 µM in each case.
Regarding `CCN(CCN(CC)C(=O)NC)C(=O)NC`, the TGI with HCC-2998 colon, in the assay on NCI-H23 lung, with 786-0 renal, in the assay on EKVX NSCLC, with MCF7 breast and in the assay with SW-620 colon was over 100 µM each time. Further, the TGI in the assay on MOLT-4 leukemia, with HS 578T breast, in the assay with SK-MEL-5 melanoma and with OVCAR-8 ovarian was over 100 µM in each case.
As for `COc1c(C)c(C/C=C(\C)CCCCO)c(OC)c2ccccc12`, the TGI in the assay with HCC-2998 colon is 62.5 µM; with NCI-H23 lung, 94.2 µM; in the assay on 786-0 renal it was over 100 µM; in the assay on EKVX NSCLC, over 100 µM; with MCF7 breast it was over 100 µM; with SW-620 colon it was over 100 µM. The TGI was 43.1 µM in the assay with MOLT-4 leukemia, over 100 µM with HS 578T breast, 39.5 µM with SK-MEL-5 melanoma and over 100 µM in the assay with OVCAR-8 ovarian.
Regarding `O=[N+]([O-])c1ccc2c(N=Nc3ccc4ccccc4c3O)c(O)cc(S(=O)(=O)O)c2c1`, the TGI was over 100 µM in the assay on HCC-2998 colon; over 93.4 µM with NCI-H23 lung; over 81.1 µM in the assay on 786-0 renal; over 82.1 µM in the assay with EKVX NSCLC; over 100 µM in the assay with MCF7 breast; over 100 µM in the assay with SW-620 colon. The TGI in the assay with MOLT-4 leukemia was over 51 µM; in the assay with HS 578T breast, over 100 µM; with SK-MEL-5 melanoma it was 53.6 µM; in the assay with OVCAR-8 ovarian, over 93.6 µM.
On to `NCCN(CCN)/[N+]([O-])=N/O`, for which the TGI in the assay on HCC-2998 colon, in the assay on NCI-H23 lung, with 786-0 renal, with EKVX NSCLC, in the assay on MCF7 breast and in the assay on SW-620 colon was over 100 µM each time. Besides, the total growth inhibition concentration (TGI) with MOLT-4 leukemia, in the assay on HS 578T breast, in the assay on SK-MEL-5 melanoma and in the assay on OVCAR-8 ovarian was over 100 µM in each case.
In the case of `O=C(NCCCc1cn[nH]c(=O)n1)c1cccc2nc3ccccc3nc12`, the TGI with HCC-2998 colon, with NCI-H23 lung, with 786-0 renal, in the assay with EKVX NSCLC, in the assay with MCF7 breast and in the assay with SW-620 colon was over 100 µM in each case. For the same compound, the TGI with MOLT-4 leukemia, with HS 578T breast, in the assay on SK-MEL-5 melanoma and in the assay with OVCAR-8 ovarian was over 100 µM each time.
Take `O=C1C(c2c(O)[nH]c3ccc(I)cc23)=Nc2ccccc21`: the TGI in the assay on HCC-2998 colon was over 22.9 µM; with NCI-H23 lung it was 45.7 µM; in the assay with 786-0 renal, 4.39 µM; with EKVX NSCLC, over 49.4 µM; with MCF7 breast it was 15.7 µM; in the assay on SW-620 colon, over 56.7 µM. In addition, the TGI is over 100 µM with MOLT-4 leukemia, over 100 µM in the assay on HS 578T breast, 10.8 µM in the assay with SK-MEL-5 melanoma and 4.74 µM in the assay with OVCAR-8 ovarian.
As to `Cc1ccc(O)cc1` (tested in a mixture with another compound), the TGI in the assay on HCC-2998 colon, in the assay on NCI-H23 lung, in the assay with 786-0 renal, in the assay on EKVX NSCLC, in the assay on MCF7 breast and in the assay with SW-620 colon was over 100 µM throughout. The TGI in the assay with MOLT-4 leukemia, with HS 578T breast, in the assay on SK-MEL-5 melanoma and in the assay on OVCAR-8 ovarian was over 100 µM throughout.
Take `O=C1[C@H](O)[C@@H]2CCC[C@@]23CCCN13`: the TGI in the assay with HCC-2998 colon, in the assay on NCI-H23 lung, with 786-0 renal, with EKVX NSCLC, with MCF7 breast and in the assay with SW-620 colon was over 100 µM throughout. Besides, the TGI with MOLT-4 leukemia, with HS 578T breast, with SK-MEL-5 melanoma and in the assay with OVCAR-8 ovarian was over 100 µM throughout.
